Data as given in ChEMBL document CHEMBL4828766 (J Med Chem, 2021).
Square brackets hold non-standard residues; d marks the D form. Peptide text beside a SMILES is read from it. dPhe(4-I) = N[C@H](Cc1ccc(I)cc1)C(=O)O; 2Nal = N[C@@H](Cc1ccc2ccccc2c1)C(=O)O; d2Nal = N[C@H](Cc1ccc2ccccc2c1)C(=O)O

Columns and labels:
Type in all cases: functional, cell-based
Melanocortin receptor 4 [1] = molecular target: T1, Melanocortin receptor 4 (Mus musculus, UniProt P56450); assay: Antagonist activity at mouse melanocortin receptor 4 expressed in HEK293 cells assessed as inhibition of NDP-MSH-induced cAMP accumulation incubated for 2 hrs by cAMP Alpha-screen assay based Schild analysis; conditions: for Kb: read-out: pA2 (converted)
T1 sequence (P56450 whole entry): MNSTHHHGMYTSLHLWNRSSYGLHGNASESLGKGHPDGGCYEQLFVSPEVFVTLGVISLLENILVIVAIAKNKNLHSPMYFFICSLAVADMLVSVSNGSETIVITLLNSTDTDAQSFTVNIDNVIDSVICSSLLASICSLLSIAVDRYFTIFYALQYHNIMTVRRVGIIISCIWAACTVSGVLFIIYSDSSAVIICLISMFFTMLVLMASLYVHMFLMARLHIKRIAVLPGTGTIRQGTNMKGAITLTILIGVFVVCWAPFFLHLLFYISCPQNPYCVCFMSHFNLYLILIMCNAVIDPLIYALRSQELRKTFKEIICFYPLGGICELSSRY

Melanocortin receptor 4 [2] = molecular target: T1, Melanocortin receptor 4; assay: Agonist activity at mouse MC4R expressed in HEK293 cells assessed as induction of cAMP level incubated for 2 hr by alphaScreen assay
[3] = molecular target: Melanocyte-stimulating hormone receptor (Mus musculus) (UniProt Q01727); assay: Agonist activity at mouse MC1R expressed in HEK293 cells assessed as induction of cAMP level at 100 uM incubated for 2 hr by alphaScreen assay relative to NDP-MSH
Sequence of Melanocyte-stimulating hormone receptor (Mus musculus) (Q01727 whole entry, looked up): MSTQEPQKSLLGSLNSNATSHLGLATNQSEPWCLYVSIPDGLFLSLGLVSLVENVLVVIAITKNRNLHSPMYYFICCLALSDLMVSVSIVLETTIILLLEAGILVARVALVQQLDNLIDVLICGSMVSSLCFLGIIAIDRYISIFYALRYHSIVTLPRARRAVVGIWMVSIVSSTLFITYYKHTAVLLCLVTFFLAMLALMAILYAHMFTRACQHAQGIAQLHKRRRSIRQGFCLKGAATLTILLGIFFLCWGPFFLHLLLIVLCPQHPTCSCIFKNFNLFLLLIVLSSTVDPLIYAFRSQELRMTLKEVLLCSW

Melanocortin receptor 3 [4] = molecular target: T2, Melanocortin receptor 3 (Mus musculus, UniProt P33033); assay: Antagonist activity at mouse melanocortin receptor 3 expressed in HEK293 cells assessed as inhibition of NDP-MSH-induced cAMP accumulation incubated for 2 hrs by cAMP Alpha-screen assay based Schild analysis; conditions: for Kb: read-out: pA2 (converted)
T2 sequence (P33033 whole entry): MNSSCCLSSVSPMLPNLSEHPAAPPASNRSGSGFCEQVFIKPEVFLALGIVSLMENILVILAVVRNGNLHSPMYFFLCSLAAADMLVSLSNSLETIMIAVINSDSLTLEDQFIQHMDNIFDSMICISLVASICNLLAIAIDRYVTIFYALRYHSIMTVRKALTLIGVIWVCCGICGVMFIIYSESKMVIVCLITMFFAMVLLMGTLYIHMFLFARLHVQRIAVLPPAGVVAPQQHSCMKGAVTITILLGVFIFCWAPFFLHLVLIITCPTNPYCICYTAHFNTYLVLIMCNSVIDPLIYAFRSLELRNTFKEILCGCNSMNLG

Melanocortin receptor 3 [5] = molecular target: T2, Melanocortin receptor 3; assay: Agonist activity at mouse MC3R expressed in HEK293 cells assessed as induction of cAMP level incubated for 2 hr by alphaScreen assay
Melanocortin receptor 5 = Melanocortin receptor 5 (Mus musculus, UniProt P41149); assay: Agonist activity at mouse MC5R expressed in HEK293 cells assessed as induction of cAMP level at 100 uM incubated for 2 hr by alphaScreen assay
Sequence of Melanocortin receptor 5 (P41149 whole entry): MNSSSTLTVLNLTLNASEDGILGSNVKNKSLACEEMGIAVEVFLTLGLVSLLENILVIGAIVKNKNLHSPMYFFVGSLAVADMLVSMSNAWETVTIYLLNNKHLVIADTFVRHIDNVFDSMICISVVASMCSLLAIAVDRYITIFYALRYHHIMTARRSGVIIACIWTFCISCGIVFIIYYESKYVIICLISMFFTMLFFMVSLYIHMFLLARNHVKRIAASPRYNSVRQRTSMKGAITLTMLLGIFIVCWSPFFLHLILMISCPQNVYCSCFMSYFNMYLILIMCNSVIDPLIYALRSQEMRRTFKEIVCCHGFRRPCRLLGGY

[6] = molecular target: Melanocortin receptor 4 (Mus musculus) (UniProt P56450); assay: Agonist activity at mouse MC4R expressed in HEK293 cells assessed as induction of cAMP level at 100 uM incubated for 2 hr by alphaScreen assay relative to control
Sequence of Melanocortin receptor 4 (Mus musculus) (P56450 whole entry): as the sequence (P56450 whole entry) above

[7] = molecular target: Melanocortin receptor 3 (Mus musculus) (UniProt P33033); assay: Agonist activity at mouse MC3R expressed in HEK293 cells assessed as induction of cAMP level at 100 uM incubated for 2 hr by alphaScreen assay relative to control
Sequence of Melanocortin receptor 3 (Mus musculus) (P33033 whole entry): as the sequence (P33033 whole entry) above

[8] = molecular target: Melanocyte-stimulating hormone receptor (Mus musculus, UniProt Q01727); assay: Agonist activity at mouse MC1R expressed in HEK293 cells assessed as induction of cAMP level at 100 uM incubated for 2 hr by alphaScreen assay
Sequence of Melanocyte-stimulating hormone receptor (Q01727 whole entry): as the sequence (Q01727 whole entry, looked up) above

Structure (SMILES)	Kb (Melanocortin receptor 4 [1])	EC50 (Melanocortin receptor 4 [2])	Activity ([3]; filed as agonist)	Kb (Melanocortin receptor 3 [4])	EC50 (Melanocortin receptor 3 [5])	EC50 (Melanocortin receptor 5)	Ki (Melanocortin receptor 4 [1])	Activity [6]	Activity [7]	Ki (Melanocortin receptor 3 [4])	EC50 [8]	Activity [3]	Activity ([7]; filed as agonist)
CC(=O)N[C@H](Cc1ccc(I)cc1)C(=O)N[C@H](Cc1ccc2ccccc2c1)C(=O)N[C@H](Cc1ccc(I)cc1)C(=O)N[C@@H](CCCNC(=N)N)C(N)=O (Ac-[dPhe(4-I)][d2Nal][dPhe(4-I)]R-NH2)	> 3.16 µM	> 100 µM	40%	> 3.16 µM	> 100 µM								
CC(=O)N[C@H](Cc1ccc2ccccc2c1)C(=O)N[C@H](Cc1ccc2ccccc2c1)C(=O)N[C@H](Cc1ccc2ccccc2c1)C(=O)N[C@H](CCCCN)C(N)=O (Ac-[d2Nal][d2Nal][d2Nal][dK]-NH2)	> 3.16 µM	> 100 µM	55%	> 3.16 µM	> 100 µM	> 100 µM							
CC(=O)N[C@H](Cc1ccc(I)cc1)C(=O)N[C@@H](CCCNC(=N)N)C(=O)N[C@@H](Cc1ccc2ccccc2c1)C(=O)N[C@H](Cc1ccc2ccccc2c1)C(N)=O (Ac-[dPhe(4-I)]R[2Nal][d2Nal]-NH2)	0.2 µM	> 100 µM	55%	> 3.16 µM	> 100 µM	> 100 µM	0.2 µM						
CC(=O)N[C@H](Cc1ccc(I)cc1)C(=O)N[C@@H](CCCNC(=N)N)C(=O)N[C@@H](Cc1c[nH]c2ccccc12)C(=O)N[C@H](Cc1ccc2ccccc2c1)C(N)=O (Ac-[dPhe(4-I)]RW[d2Nal]-NH2)	0.0251 µM		45%	1 µM		> 100 µM	0.025 µM	35%	25%	1 µM			
CC(=O)N[C@H](Cc1ccc(I)cc1)C(=O)N[C@H](Cc1ccc2ccccc2c1)C(=O)N[C@H](Cc1ccc2ccccc2c1)C(=O)N[C@@H](CCCNC(=N)N)C(N)=O (Ac-[dPhe(4-I)][d2Nal][d2Nal]R-NH2)	> 3.16 µM	> 100 µM		> 3.16 µM	> 100 µM	0.23 µM					> 100 µM		
CC(=O)N[C@H](Cc1ccc2ccccc2c1)C(=O)N[C@H](Cc1ccc2ccccc2c1)C(=O)N[C@@H](Cc1c[nH]c2ccccc12)C(=O)N[C@H](CCCCN)C(N)=O (Ac-[d2Nal][d2Nal]W[dK]-NH2)	0.2 µM			1.58 µM	> 100 µM	> 100 µM		30%				25%	
CC(=O)N[C@H](Cc1ccc(I)cc1)C(=O)N[C@H](Cc1ccc2ccccc2c1)C(=O)N[C@@H](Cc1ccc2ccccc2c1)C(=O)N[C@@H](CCCNC(=N)N)C(N)=O (Ac-[dPhe(4-I)][d2Nal][2Nal]R-NH2)	1.58 µM	> 100 µM		> 3.16 µM	> 100 µM	0.8 µM	1.6 µM						
CC(=O)N[C@H](Cc1ccc2ccccc2c1)C(=O)N[C@H](Cc1ccc2ccccc2c1)C(=O)N[C@H](Cc1ccc2ccccc2c1)C(=O)N[C@@H](CCCNC(=N)N)C(N)=O	> 3.16 µM			> 3.16 µM				25%	35%			30%	
CC(=O)N[C@H](Cc1ccc(I)cc1)C(=O)N[C@H](Cc1ccc2ccccc2c1)C(=O)N[C@@H](Cc1c[nH]c2ccccc12)C(=O)N[C@@H](CCCNC(=N)N)C(N)=O	2.51 µM	> 100 µM		> 3.16 µM	> 100 µM	> 100 µM	2.5 µM				> 100 µM		
CC(=O)N[C@H](Cc1ccc2ccccc2c1)C(=O)N[C@H](Cc1ccc2ccccc2c1)C(=O)N[C@@H](Cc1ccc2ccccc2c1)C(=O)N[C@H](CCCCN)C(N)=O (Ac-[d2Nal][d2Nal][2Nal][dK]-NH2)	> 3.16 µM	> 100 µM	45%	> 3.16 µM	> 100 µM	> 100 µM							
CC(=O)N[C@H](Cc1ccc2ccccc2c1)C(=O)N[C@@H](CCCNC(=N)N)C(=O)N[C@H](Cc1ccc(I)cc1)C(=O)N[C@@H](CCCNC(=N)N)C(N)=O (Ac-[d2Nal]R[dPhe(4-I)]R-NH2)	0.00251 µM	> 100 µM		0.0794 µM	> 100 µM	> 100 µM					0.04 µM		
CC(=O)N[C@H](Cc1ccc2ccccc2c1)C(=O)N[C@@H](CCCNC(=N)N)C(=O)N[C@@H](Cc1c[nH]c2ccccc12)C(=O)N[C@H](Cc1ccc2ccccc2c1)C(N)=O (Ac-[d2Nal]RW[d2Nal]-NH2)	0.1 µM			2 µM		> 100 µM		30%					40%
CC(=O)N[C@H](Cc1ccc(I)cc1)C(=O)N[C@H](Cc1ccc2ccccc2c1)C(=O)N[C@H](Cc1ccc(I)cc1)C(=O)N[C@H](CCCCN)C(N)=O	> 3.16 µM	> 100 µM		> 3.16 µM	> 100 µM	> 100 µM					> 100 µM		
CC(=O)N[C@H](Cc1ccc(I)cc1)C(=O)N[C@@H](CCCNC(=N)N)C(=O)N[C@H](Cc1ccc(I)cc1)C(=O)N[C@@H](CCCNC(=N)N)C(N)=O (Ac-[dPhe(4-I)]R[dPhe(4-I)]R-NH2)	0.00316 µM	> 100 µM		0.0398 µM	> 100 µM	> 100 µM	0.0032 µM			0.04 µM	0.007 µM		
CC(=O)N[C@H](Cc1ccc2ccccc2c1)C(=O)N[C@@H](CCCNC(=N)N)C(=O)N[C@@H](Cc1c[nH]c2ccccc12)C(=O)N[C@H](CCCCN)C(N)=O (Ac-[d2Nal]RW[dK]-NH2)	0.02 µM	> 100 µM		3.16 µM	> 100 µM	> 100 µM					> 100 µM		
CC(=O)N[C@H](Cc1ccc(I)cc1)C(=O)N[C@@H](CCCNC(=N)N)C(=O)N[C@H](Cc1ccc(I)cc1)C(=O)N[C@H](CCCCN)C(N)=O (Ac-[dPhe(4-I)]R[dPhe(4-I)][dK]-NH2)	0.00316 µM	> 100 µM		0.0316 µM	> 100 µM	> 100 µM	0.0032 µM			0.032 µM	0.035 µM		
CC(=O)N[C@H](Cc1ccc2ccccc2c1)C(=O)N[C@@H](CCCNC(=N)N)C(=O)N[C@@H](Cc1ccc2ccccc2c1)C(=O)N[C@@H](CCCNC(=N)N)C(N)=O (Ac-[d2Nal]R[2Nal]R-NH2)	0.00158 µM			0.1 µM	> 100 µM	> 100 µM		30%			> 100 µM		
CC(=O)N[C@H](Cc1ccc(I)cc1)C(=O)N[C@H](Cc1ccc2ccccc2c1)C(=O)N[C@H](Cc1ccc2ccccc2c1)C(=O)N[C@H](CCCCN)C(N)=O (Ac-[dPhe(4-I)][d2Nal][d2Nal][dK]-NH2)	0.501 µM	> 100 µM		> 3.16 µM	> 100 µM	> 100 µM							
CC(=O)N[C@H](Cc1ccc(I)cc1)C(=O)N[C@@H](CCCNC(=N)N)C(=O)N[C@@H](Cc1c[nH]c2ccccc12)C(=O)N[C@H](CCCCN)C(N)=O (Ac-[dPhe(4-I)]RW[dK]-NH2)	0.0251 µM	> 100 µM		0.631 µM	> 100 µM	> 100 µM	0.025 µM			0.63 µM	> 100 µM		
CC(=O)N[C@H](Cc1ccc2ccccc2c1)C(=O)N[C@@H](CCCNC(=N)N)C(=O)N[C@H](Cc1ccc(I)cc1)C(=O)N[C@H](CCCCN)C(N)=O	0.00316 µM	> 100 µM		0.126 µM	> 100 µM	> 100 µM					0.22 µM		
CC(=O)N[C@H](Cc1ccc2ccccc2c1)C(=O)N[C@@H](CCCNC(=N)N)C(=O)N[C@@H](Cc1c[nH]c2ccccc12)C(=O)N[C@@H](CCCNC(=N)N)C(N)=O (Ac-[d2Nal]RWR-NH2)	0.00501 µM			0.158 µM	> 100 µM	> 100 µM		20%					
CC(=O)N[C@H](Cc1ccc2ccccc2c1)C(=O)N[C@H](Cc1ccc2ccccc2c1)C(=O)N[C@H](Cc1ccc(I)cc1)C(=O)N[C@H](CCCCN)C(N)=O (Ac-[d2Nal][d2Nal][dPhe(4-I)][dK]-NH2)	> 3.16 µM	> 100 µM		> 3.16 µM	> 100 µM	> 100 µM						20%	
CC(=O)N[C@H](Cc1ccc2ccccc2c1)C(=O)N[C@H](Cc1ccc2ccccc2c1)C(=O)N[C@H](Cc1ccc(I)cc1)C(=O)N[C@@H](CCCNC(=N)N)C(N)=O (Ac-[d2Nal][d2Nal][dPhe(4-I)]R-NH2)	> 3.16 µM	> 100 µM		> 3.16 µM	> 100 µM							25%	
CC(=O)N[C@H](Cc1ccc(I)cc1)C(=O)N[C@H](Cc1ccc2ccccc2c1)C(=O)N[C@@H](Cc1c[nH]c2ccccc12)C(=O)N[C@H](CCCCN)C(N)=O (Ac-[dPhe(4-I)][d2Nal]W[dK]-NH2)	0.251 µM	> 100 µM	65%	2 µM	> 100 µM	> 100 µM	0.25 µM			2 µM			
